Laboratory results published in article PMC10150354, “Linearization of the Brevicidine and Laterocidine Lipopeptides Yields Analogues That Retain Full Antibacterial Activity” (Journal of Medicinal Chemistry, 2023).
Converted amounts (≈) assume the structure as drawn. Where a SMILES comes first, the peptide text is derived from it. Bridges are numbered along the chain shown (N, C = ends). [ ]: non-standard residue; d: D form. The star is where a group is joined. ξ: configuration not given here. Octanoyl(7-Me) = CC(C)CCCCCC(=O)*; Hexanoyl(4ξ-Me) = CCC(C)CCC(=O)*; dOrn = NCCC[C@@H](N)C(=O)O; Orn = NCCC[C@H](N)C(=O)O; Dap = NC[C@H](N)C(=O)O

Legend:
K. pneumoniae ATCC 13883 = format: cell-based, Klebsiella pneumoniae; conditions: microbroth dilution per CLSI, MHB, 18 h at 37 °C, visual inspection, three technical replicates
Experimental: (§1) Linear laterocidine (LL-OH, 4) and linear brevicidine (LB-OH, 5) were first synthesized by Fmoc SPPS, starting from 2-chlorotrityl (2-CT) chloride resin. The antibacterial activity of these peptides was then compared to brevicidine (1) and laterocidine (2) using minimum inhibitory concentration (MIC)/microbroth dilution assays (Table 1). The MICs of all peptides were determined against a panel of Gram-negative and Gram-positive ESKAPE pathogens. Additionally, a strain of E. coli carrying the mcr-1 gene was included in the panel. The mcr-1 gene is a transferrable plasmid that confers resistance against colistin, a last-resort antibiotic for Gram-negative infections, by reducing the overall negative charge of lipopolysaccharide (LPS) through modification of lipid A with phosphoethanolamine. The propensity for cationic antibiotics to bind to the cell membrane is therefore reduced. This gene has been observed in more than 27 bacterial species over six continents.[26] The spread of the mcr-1 gene could render colistin ineffectual; therefore, novel antibacterials are urgently required to overcome this form of resistance.
(§2) All minimum inhibitory concentrations (MICs) were determined according to Clinical and Laboratory Standards Institute (CLSI) guidelines. Blood agar plates were inoculated with glycerol stocks of E. coli ATCC 25922, K. pneumoniae ATCC 13883, A. baumannii ATCC 17961, P. aeruginosa PAO1, and S. aureus USA300. The inoculated agar plates were then incubated for 16 h at 37 °C. Individually grown colonies were subsequently used to inoculate 5 mL aliquots of TSB that were then incubated at 37 °C with shaking at 220 rpm. E. coli 25922 MCR-1 glycerol stock was used to inoculate 5 mL of TSB supplemented with kanamycin that was then incubated for 16 h at 37 °C with shaking at 220 rpm. The next day the culture was diluted 100-fold in TSB supplemented with kanamycin and incubated at 37 °C with shaking at 220 rpm. In parallel, the lipopeptide antibiotics DMSO stocks to be assessed were serially diluted with MHB in polypropylene 96-well plates (50 μL in each well). Colistin sulfate stocks were dissolved in water before being diluted with MHB. Aliquots of the inoculated TSB were incubated until an OD600 of around 0.5 was reached. The bacterial suspensions were then diluted with MHB (2 × 10^5 CFU/mL) and added to the microplates containing the test compounds (50 μL to each well). The well plates were sealed with an adhesive membrane and after 18 h of incubation at 37 °C with shaking at 600 rpm, the wells were visually inspected for bacterial growth. MIC values reported are based on three technical replicates and defined as the lowest concentration of the compound that prevented visible growth of bacteria.

E. coli (MCR-1) = format: cell-based, Escherichia coli; conditions: microbroth dilution per CLSI, MHB, 18 h at 37 °C, visual inspection, three technical replicates, E. coli 25922 carrying mcr-1
Experimental: as §1, §2

E. coli ATCC 25922 = format: cell-based, Escherichia coli; conditions: for Antibacterial activity (MIC) E. coli ATCC 25922: microbroth dilution per CLSI, MHB, 18 h at 37 °C, visual inspection, three technical replicates; for MIC (µg/mL) against E. coli (ATCC 25922): (Supplement 2)
Experimental: as §1, §2

P. aeruginosa PAO1 = format: cell-based, Pseudomonas aeruginosa; conditions: microbroth dilution per CLSI, MHB, 18 h at 37 °C, visual inspection, three technical replicates
Experimental: as §1, §2

S. aureus USA300 = format: cell-based, Staphylococcus aureus; conditions: microbroth dilution per CLSI, MHB, 18 h at 37 °C, visual inspection, three technical replicates
Experimental: as §1, §2

A. baumannii ATCC 17961 = format: cell-based, Acinetobacter baumannii; conditions: microbroth dilution per CLSI, MHB, 18 h at 37 °C, visual inspection, three technical replicates
Experimental: as §1, §2

| Structure (SMILES) | Antibacterial activity (MIC) K. pneumoniae ATCC 13883 (K. pneumoniae ATCC 13883) | Antibacterial activity (MIC) E. coli (MCR-1) (E. coli (MCR-1)) | Antibacterial activity (MIC) E. coli ATCC 25922 (E. coli ATCC 25922) | Antibacterial activity (MIC) P. aeruginosa PAO1 (P. aeruginosa PAO1) | Antibacterial activity (MIC) S. aureus USA300 (S. aureus USA300) | Antibacterial activity (MIC) A. baumannii ATCC 17961 (A. baumannii ATCC 17961) | MIC (µg/mL) against E. coli (ATCC 25922) (E. coli ATCC 25922) |
| --- | --- | --- | --- | --- | --- | --- | --- |
| CCC(C)CCC(=O)N[C@H](CC(N)=O)C(=O)N[C@H](Cc1ccc(O)cc1)C(=O)N[C@H](Cc1c[nH]c2ccccc12)C(=O)N[C@H](CCCN)C(=O)N[C@@H](CCCN)C(=O)NCC(=O)N[C@H](CCCN)C(=O)N[C@@H](Cc1c[nH]c2ccccc12)C(=O)N[C@@H]1C(=O)N[C@@H]([C@@H](C)CC)C(=O)NCC(=O)N[C@@H](CO)C(=O)O[C@@H]1C (stereo partly shown) [Brev (1), brevicidine] ({Hexanoyl(4ξ-Me)}-[dN][dY][dW][dOrn][Orn]G[dOrn]WTIGS; ester 9-C) | 2 µg/mL | 4 µg/mL | 4 µg/mL | 8 µg/mL | >32 µg/mL | 4 µg/mL | – |
| CCC(C)CCC(=O)N[C@H](CC(N)=O)C(=O)N[C@H](Cc1ccc(O)cc1)C(=O)N[C@H](Cc1c[nH]c2ccccc12)C(=O)N[C@H](C)C(=O)N[C@@H](CCCN)C(=O)NCC(=O)N[C@H](CCCN)C(=O)N[C@@H](Cc1c[nH]c2ccccc12)C(=O)N[C@H](C(=O)N[C@H](C(=O)NCC(=O)N[C@@H](CO)C(N)=O)[C@@H](C)CC)[C@@H](C)O (stereo partly drawn) [LB(D-Ala4)-NH2 (20)] ({Hexanoyl(4ξ-Me)}-[dN][dY][dW][dA][Orn]G[dOrn]WTIGS-NH2) | >32 µg/mL | >32 µg/mL | >32 µg/mL | 32 µg/mL | >32 µg/mL | 32 µg/mL | – |
| CCC(C)CCC(=O)N[C@H](CC(N)=O)C(=O)N[C@H](Cc1ccc(O)cc1)C(=O)N[C@H](Cc1c[nH]c2ccccc12)C(=O)N[C@H](CCCN)C(=O)N[C@@H](CCCN)C(=O)NCC(=O)N[C@H](CCCN)C(=O)N[C@@H](Cc1c[nH]c2ccccc12)C(=O)N[C@H](C(=O)N[C@H](C(=O)NCC(=O)N[C@@H](CO)C(=O)O)[C@@H](C)CC)[C@@H](C)O (stereo partly shown) [LB-OH (5)] ({Hexanoyl(4ξ-Me)}-[dN][dY][dW][dOrn][Orn]G[dOrn]WTIGS-OH) | >32 µg/mL | >32 µg/mL | >32 µg/mL | 16 µg/mL | >32 µg/mL | >32 µg/mL | – |
| CC[C@H](C)[C@H](NC(=O)[C@@H](NC(=O)[C@H](Cc1c[nH]c2ccccc12)NC(=O)[C@@H](CCCN)NC(=O)CNC(=O)[C@H](C)NC(=O)[C@@H](CCCN)NC(=O)[C@@H](Cc1c[nH]c2ccccc12)NC(=O)[C@@H](Cc1ccc(O)cc1)NC(=O)[C@@H](CO)NC(=O)CCCCCC(C)C)[C@@H](C)O)C(=O)N[C@@H](CC(N)=O)C(=O)NCC(=O)NCC(N)=O [LL(Ala5)-NH2 (33)] ({Octanoyl(7-Me)}-[dS][dY][dW][dOrn]AG[dOrn]WTINGG-NH2) | >32 µg/mL | >32 µg/mL | 32 µg/mL | 32 µg/mL | >32 µg/mL | >32 µg/mL | – |
| CC[C@H](C)[C@H](NC(=O)[C@@H](NC(=O)[C@H](Cc1c[nH]c2ccccc12)NC(=O)[C@@H](CCCN)NC(=O)[C@H](C)NC(=O)[C@H](CCCN)NC(=O)[C@@H](CCCN)NC(=O)[C@@H](Cc1c[nH]c2ccccc12)NC(=O)[C@@H](Cc1ccc(O)cc1)NC(=O)[C@@H](CO)NC(=O)CCCCCC(C)C)[C@@H](C)O)C(=O)N[C@@H](CC(N)=O)C(=O)NCC(=O)NCC(N)=O [LL(Ala6)-NH2 (34)] ({Octanoyl(7-Me)}-[dS][dY][dW][dOrn][Orn]A[dOrn]WTINGG-NH2) | 8 µg/mL | 8 µg/mL | 4 to 8 µg/mL | 16 µg/mL | >32 µg/mL | 16 µg/mL | 4 to 8 µg/mL |
| CC[C@H](C)[C@H](NC(=O)[C@@H](NC(=O)[C@H](C)NC(=O)[C@@H](CCCN)NC(=O)CNC(=O)[C@H](CCCN)NC(=O)[C@@H](CCCN)NC(=O)[C@@H](Cc1c[nH]c2ccccc12)NC(=O)[C@@H](Cc1ccc(O)cc1)NC(=O)[C@@H](CO)NC(=O)CCCCCC(C)C)[C@@H](C)O)C(=O)N[C@@H](CC(N)=O)C(=O)NCC(=O)NCC(N)=O [LL(Ala8)-NH2 (36)] ({Octanoyl(7-Me)}-[dS][dY][dW][dOrn][Orn]G[dOrn]ATINGG-NH2) | >32 µg/mL | >32 µg/mL | >32 µg/mL | 32 µg/mL | >32 µg/mL | >32 µg/mL | – |
| CC[C@H](C)[C@H](NC(=O)[C@H](C)NC(=O)[C@H](Cc1c[nH]c2ccccc12)NC(=O)[C@@H](CCCN)NC(=O)CNC(=O)[C@H](CCCN)NC(=O)[C@@H](CCCN)NC(=O)[C@@H](Cc1c[nH]c2ccccc12)NC(=O)[C@@H](Cc1ccc(O)cc1)NC(=O)[C@@H](CO)NC(=O)CCCCCC(C)C)C(=O)N[C@@H](CC(N)=O)C(=O)NCC(=O)NCC(N)=O [LL(Ala9)-NH2 (37)] ({Octanoyl(7-Me)}-[dS][dY][dW][dOrn][Orn]G[dOrn]WAINGG-NH2) | 4 µg/mL | 4 to 8 µg/mL | 4 µg/mL | 4 µg/mL | >32 µg/mL | 8 µg/mL | – |
| CC[C@H](C)[C@H](NC(=O)[C@H](CN)NC(=O)[C@H](Cc1c[nH]c2ccccc12)NC(=O)[C@@H](CCCN)NC(=O)CNC(=O)[C@H](CCCN)NC(=O)[C@@H](CCCN)NC(=O)[C@@H](Cc1c[nH]c2ccccc12)NC(=O)[C@@H](Cc1ccc(O)cc1)NC(=O)[C@@H](CO)NC(=O)CCCCCC(C)C)C(=O)N[C@@H](CC(N)=O)C(=O)NCC(=O)NCC(N)=O [LL(Dap9)-NH2 (52)] ({Octanoyl(7-Me)}-[dS][dY][dW][dOrn][Orn]G[dOrn]W[Dap]INGG-NH2) | 32 µg/mL | 8 µg/mL | 8 µg/mL | – | >32 µg/mL | 16 µg/mL | 8 µg/mL (≈ 4.98 µM) |
